Test results published in patent US20080220072A1, “BIOLOGIC MODULATIONS WITH NANOPARTICLES” (priority 2002, published 2008).

Experiments:
cancer cells = assay: Growth inhibition, MTT/WST assay, antisense backbones; type: cell-based; details: maximal kill, 72 hours post treatment
Method: The efficacies of various nucleic acid backbone chemistries were investigated by delivering […] to cancer cells in organ culture using a collection of nanoparticles that were less than about 50 nm in diameter. Recurrent head neck tumors are typically small (1-2 cm), but based on volumetric scaling between in vitro tumor nests and mouse studies, it is estimated that estimate that a dose of 3 5 mg will be required to locally treat a 2 cm tumor. Various nucleic acid chemistries may reduce this amount by either enhancing binding affinity between the target mRNA and the antisense, using the antisense to bind to DNA instead of RNA, or increasing nuclease resistance (and half-life). […] Biological activity was assayed as growth inhibition using the MTT/WST assay in a 96 well format. Cells were seeded at 20,000 per well, treated 18 hours later, then assayed at 72 hours post treatment. Although the cells are resistant to conventional chemotherapeutic agents, cisplatin activity is shown for reference (black line). […] Additional formats screened but not shown were a phosphodiester/2OME chimeric and the siRNA format.

[1] = system: hormone-sensitive Alva-41 prostate carcinoma cells; assay: Growth inhibition in prostate carcinoma cells; type: cell-based, human; details: Alva-41, 5,000 cells per untreated well
Method: (§1) In these studies, cells were seeded at 5,000 cells per untreated well.

[2] = system: hormone-insensitive PC3 cells; assay: Growth inhibition in prostate carcinoma cells; type: cell-based; details: PC3, 5,000 cells per untreated well
Method: as §1

SCC-15 = assay: Growth inhibition in chemoresistant head neck cancer cell line; type: cell-based, human
Method: Antisense molecules were tested for growth inhibition against the chemoresistant head neck cancer cell line SCC-15 at 10,000 cells per well, the cells being pretreated with tenascin, with results as shown in FIG. 5B-C. Referring to FIG. 5B, PO refers to phosphodiester antisense referred to as asCK2 in Table 9 (SEQ ID NO 1), PO sense refers to phosphodiester sense sequence complementary to asCK2, siRNA refers to a duplex RNA sequence that is screened from the asCk2 sequence, 2OME RNA refers to a nucleic acid of the sequence SEQ ID NO 1 that is all RNA and is al methylated, and PO RNA refers to a proprietary chimeric molecule having the sequence of SEQ ID NO 1 but being a mixture of RNA and DNA and having phosphodiester and 2OME backbone. […] Because of it's capacity for being metabolized, the PO RNA construct within the context of a colloidal formulation will offer advantages in safety for delivery of cytotoxic constructs.
Referring to FIG. 5C, cisplatin TN/x s-50 refers to nanoparticles comprising cisplatin and a 1:1 w/w ratio of tenascin:dextran. Tn s-50 refers to nanoparticles comprising cisplatin and tenascin, asCK2 TN s-50 refers to nanoparticles comprising tenascin and asCK2 antisense of sequence SEQ ID NO 1, and free cisplatin refers to cisplatin added to the cell medium.

[3] = system: metastatic variant of Alva-41 prostate carcinoma cells; assay: Growth inhibition by nanoencapsulated cisplatin; type: cell-based, human; details: 5,000 cells per well, 72 hours
Method: Cisplatin was nanoencapsulated into the various candidate tumor binding agents as described previously and nanoparticles were compared for growth inhibition in a metastatic variant of Alva-41 prostate carcinoma cells and Ca-9-22. Formulas were tested in duplicate in two separate experiments. Results are illustrated for the prostate cell line in FIG. 5D. Referring to FIG. 5D, PEX-MMP-1/Cisplatin refers to s50 nanoparticles comprising cisplatin and the Recombinant Pex binding domain of membrane-associated Matrix Metalloproteinase-1 (see Bello et. al, Cancer Research (2001) 61: 8730-36); Tenascin/Cisplatin refers to s50 nanoparticles having tenascin and cisplatin, FN-PHSCN/Cisplatin refers to nanoparticles comprising the FN-PHSCN fragment and cisplatin, Osteonecetin/asCK2 refers to s50 nanoparticles comprising osteonectin and the asCK2 antisense sequence, galectin-3/cisplatin refers to s50 nanoparticles comprising galectin-3 and cisplatin, hyaluronan/cisplatin refers to s50 nanoparticles comprising hyaluronan and cisplatin, and naked cisplatin refers to the addition of free cisplatin to the cell medium. In these experiments cells were plated at 5,000 per well and followed for 72 hours. […] As a comparison, based on a standard male patient, an acceptable in vitro dose of cisplatin would correspond to about 10 μg/ml or 30 μM. […]

Question: “2-0 methyl RNA format: nucleic acid of the sequence SEQ ID NO 1 that is all RNA and methylated, in s50 nanoparticles (GTCCCGACATGTCAGACAGG; all 2'-O-methyl, backbone and T or U not given here; formulated in s50 nanoparticles)” was tested. Which “complete kill achieved in vitro” value (cancer cells) did it give?
Answer: The value was “capacity for complete kill”.

Question: What does the source list for “SEQ ID NO 1: GTCCCGACATGTCAGACAGG; phosphodiester antisense 20mer to CK2α translation start site (antisense GTCCCGACATGTCAGACAGG; all phosphodiester, sugars by position and methylation of C not given here)”?
Answer: IC50 [1]: 15 µM; IC50 [2]: 40 µM

Question: How did the IC50 (SCC-15; SCC-15, 10,000 cells per well, pretreated with tenascin) turn out when “PO RNA: chimeric molecule with sequence of SEQ ID NO 1, mixture of RNA and DNA, phosphodiester and 2OME backbone (antisense GTCCCGACATGTCAGACAGG; RNA/DNA chimera, phosphodiester and 2'-O-methyl, chemistry not fully specified)” was run?
Answer: Its IC50 is 3 µM.

Question: With N.N.[Cl][Pt][Cl] [free cisplatin, cisplatin, reference compound] as the molecule, how does the “overall in vitro kill” value (SCC-15; SCC-15, FIG. 5C) read?
Answer: Its value is “zero”.

Question: And the IC50 [3]?
Answer: The IC50 was 100 µM.
